Patent publication US20250263370A1 (Tay Therapeutics Limited, priority 2022, published 2025)
≈ marks a conversion by molar mass, not a printed value.

What was measured:
[1] = Plasma stability assay, rat plasma; format: in vitro ADME
Method: (§1) From stock solution of compound in 10 mM DMSO, a working solution of 1 mM is prepared by diluting the compound in DMSO. To 398 μL of plasma pre-warmed at 37° C. for 15 minutes), 2 μL of working solution of compound is added, resulting in a final concentration of 5 μM (0.5% DMSO) for the compound. The sample is then incubated at 37° C. Aliquot is withdrawn at specified time-points (0, 15, 30, 60 and 120 mins). The reaction is stopped by addition of 450 μL cold acetonitrile containing internal standard (IS). […] Aliquots of the supernatant is analysed using LC-MS/MS. The percent remaining of the compound at each time point is calculated with respect to the control sample (0 min time-point).
(§2) A working solution of compound (500 μM) is prepared in DMSO (100%). To 735 μL of plasma, 15 μL of working solution of compound is added—resulting in a final concentration of 10 μM (2% DMSO) for the compound. The sample is then incubated at 37° C. Aliquot is withdrawn at time-points—0, 15, 30, 60, 90 and 120 mins. The reaction is stopped by using chilled acetonitrile containing internal standard (IS). The samples are centrifuged and the supernatants analyzed using LC-MS/MS. The percent remaining of the compound at each time point is calculated with respect to the control sample (0 min time-point).

BRD4 BD1 = BRD4 BD1 (Homo sapiens (Human), UniProt O60885); assay: NanoBRET bromodomain assay, NanoLuc-BRD4-BD1 fusion in HEK293 cells; format: cell-based; conditions: top concentration 10 μM
[2] = Thermodynamic solubility in FaSSIF pH 6.5 buffer; format: physicochemical; conditions: FaSSIF buffer, 25 °C, pH 6.5, fassif, thermodynamic from solid; for solubility thermodynamic: Method 2 (LCMS, 25° C.)
Method: FaSSIF v2 buffer is freshly prepared prior to use according to the suppliers' instructions and the pH adjusted to 6.5 using 1 M NaOH or 1 M HCl as required. From 1 mM working solution of test compound in DMSO, the λmax of the test compound is determined by scanning from 200 nm to 700 nm, in 1 nm steps with an EPOCH UV/Visible spectrophotometer (Biotek Instruments Inc.). A 12-point standard curve of compound concentration versus absorption at λmax is generated via two-fold serial dilutions of the 1 mM working solution with DMSO. Approximately 1 mg of test compound is accurately weighed into an Eppendorf tube and the appropriate volume of FaSSIF buffer is added to make a nominal concentration of 1 mg/mL. The tube is incubated on a rotator at 20 rpm, 25° C. for 24 hrs. Samples are then filtered using 0.45 μm filters (Sartorious, CAT #1776C) and the filtrate subjected to UV-vis spectroscopy analysis. The absorption at λmax is compared to the standard curve to determine the concentration of compound in solution after 24 hours.
FaSSIF buffer was prepared according to the suppliers' instructions and the pH adjusted to 6.5 using 1 M NaOH or 1 M HCl as required. […] A stir stick was added to each vial and vials sealed with a moulded PTDE/SIL 96-well plate cover. The plate was shaken at 25° C. at 1,100 rpm using an Eppendorf Thermomixer Comfort plate shaker. The plates were filtered using a vacuum manifold and diluted with a mixture of H2O and acetonitrile containing internal standard. The concentration of the test compound in the filtrate was determined by LCMS analysis with reference to the internal standards to determine the solubility in the buffer.

BRD4 BD2 = BRD4 BD2 (Homo sapiens (Human), UniProt O60885); assay: NanoBRET bromodomain assay, NanoLuc-BRD4-BD2 fusion in HEK293 cells; conditions: for IC50: BRD4 BD2 (IC50), NanoBRET, HEK293 cells, top concentration 10 μM; for Fold selectivity: IC50 for BRD4 BD1 divided by IC50 for BRD4 BD2, qualitative if an IC50 is at the upper limit;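 as to all read-outs here: tracer displacement BRET read in transfected cells after 2 h compound exposure at 37 °C, signal in milliBRET units corrected against no-tracer background wells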
[3] = Intrinsic clearance in liver microsomes, rat; format: in vitro ADME; conditions: rat, liver microsomes, pH 7.4, rat liver microsomes, Method 1; read-out: Half-Life (T1/2) (min), Rat
Procedure, shortened: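 Compound at 1 μM (0.1–1% DMSO) incubated at 37 °C with mouse or rat liver microsomes (0.5 mg/mL protein) and 1 mM NADPH in PBS pH 7.4; samples taken up to 60 min and quenched in cold acetonitrile. LC-MS/MS of percent remaining gave half-life and CLint; no-NADPH controls run.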

[4] = Sprague-Dawley rat pharmacokinetics, IV and PO cassette dosing; format: in vivo; conditions: for PO F: PO 5 mg/kg; for half-life: male, Sprague-Dawley, rat, plasma, iv, 1 mg/kg, Method 1, read-out: IV T1/2 (converted)
Procedure, shortened: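 Male Sprague-Dawley rats (2 per arm) given up to 5 compounds in cassette, 1 mg/kg IV and 5 mg/kg PO, formulated in 5% DMSO/40% PEG-400/55% water. Plasma from serial blood samples was acetonitrile-precipitated and analysed by LC/MS/MS against matrix-matched standard curves.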

[5] = Plasma stability assay, mouse plasma; format: in vitro ADME; conditions: Method 1 (5 μM)
Method: as §1, §2

[6] = Plasma stability assay, human plasma; format: in vitro ADME; conditions: Method 1 (5 μM)
Method: as §1, §2

[7] = Intrinsic clearance in liver microsomes, mouse; format: in vitro ADME; conditions: pH 7.4, Method 1, read-out: Half-Life (T1/2) (min), Mouse
Method: From stock solution of compound on 10 mM DMSO, a working solution of 0.1 mM is prepared by diluting the compound in DMSO. 6.25 μL of a 20 mg/mL solution of microsomes in PBS pH 7.4 buffer is added to 216.25 μL PBS pH 7.4 buffer (final microsome concentration—0.5 mg/mL). 25 μL of 10 mM solution of NADPH in PBS pH 7.4 buffer is added to the incubations (final NADPH concentration—1 mM). The mixture is pre-warmed to 37° C. for 10 minutes. 2.5 μL of test compound working solution is added (final compound concentration—1 μM with 1% DMSO). Aliquots of 30 μL are taken from the reaction solution at 0.5, 5, 15, 30 and 60 minutes. The reaction was stopped by the addition of 5 volumes of cold acetonitrile with IS (100 nM alprazolam, 200 nM caffeine and 100 nM tolbutamide). Samples were centrifuged at 3, 220 g for 40 minutes. Aliquots of 100 μL of the supernatant are mixed with 100 μL of ultra-pure H2O and used for LC-MS/MS analysis. The percent compound remaining at each time point is calculated with respect to that of the 0.5 min sample. The data are analysed to calculate half-life. Control experiments are run without NADPH and blank samples are prepared using DMSO without the test compound.
A 50 mM stock solution (in DMSO) is prepared for the compound. From the stock solution, a working solution of 0.5 mM is prepared by diluting the compound in DMSO. This concentration of working solution is prepared considering a final concentration of 1 uM with 0.1% DMSO. The compound (1 μL of working solution) is spiked in PBS with pH 7.4 ([…]) at a concentration of 1 μM. Subsequently, 110 μL of 10 mM NADPH is added (as a co-factor). The sample is incubated at 37° C. for 15 min. Following this, pre-warmed liver microsomes (27.5 μL; final protein conc. 0.5 mg/mL) are added. The samples are then incubated at 37° C. Aliquots of samples are withdrawn at 0, 5, 15, 30, 45 and 60 min. The reaction is stopped by using chilled acetonitrile containing internal standard. The samples are centrifuged, and the supernatants analysed by LC-MS/MS. The percent compound remaining at each time point is calculated with respect to that of the 0 min sample. The data are then analysed to calculate half-life and intrinsic clearance (CLint). Control experiments are run without NADPH and blank samples are prepared using DMSO without the test compound.

| Structure (SMILES) | Plasma Stability (% remaining at 120 minutes), Rat ([1]; Method 2 (10 μM)) | IC50 (BRD4 BD1) | solubility thermodynamic [2] | IC50 (BRD4 BD2) | Fold selectivity (BRD4 BD2) | half-life at 1 μM [3] | PO F ([4]; Method 1) | half-life ([4]; IV 1 mg/kg) | Plasma Stability (% remaining at 120 minutes), Rat ([1]; Method 1 (5 μM)) | Plasma Stability (% remaining at 120 minutes), Mouse [5] | Plasma Stability (% remaining at 120 minutes), Human [6] | solubility thermodynamic at 24 h ([2]; Method 1 (UV-vis, 25° C., 24 hrs)) | half-life at 1 μM [7] | IV T1/2 ([4]; IV 1 mg/kg, Method 1) |
| --- | --- | --- | --- | --- | --- | --- | --- | --- | --- | --- | --- | --- | --- | --- |
| CNC(=O)c1[nH]c(C(=O)N[C@H]2CC[C@H](O)CC2)cc1OC(C)c1ccccc1 (single isomer, unassigned) [Example 97, N^5-(trans-4-hydroxycyclohexyl)-N^2-methyl-3-(1-phenylethoxy)-1H-pyrrole-2,5-dicarboxamide] | – | ≥ 10 µM | – | 0.05 to 0.2 µM | XX (Fold >50 and ≤200) | > 60 min | 60% | 1.4 h | >99% | 93% | >99% | 418 µM (≈ 161 µg/mL) | 70 min | – |
| CNC(=O)c1[nH]c(C(=O)NC2CC2)cc1O[C@@H](C)c1ccccc1F [Example 59, (S)—N^5-cyclopropyl-3-(1-(2-fluorophenyl)ethoxy)-N^2-methyl-1H-pyrrole-2,5-dicarboxamide] | 50% | ≥ 10 µM | 635 µM (≈ 219 µg/mL) | 0.05 to 0.2 µM | XX (Fold >50 and ≤200) | > 60 min | 70% | – | – | – | – | – | – | 1.1 h |
| CNC(=O)c1[nH]c(C(=O)NC2CC2)cc1O[C@@H](C)c1ccc(Cl)cc1 [Example 62, (S)-3-(1-(4-chlorophenyl)ethoxy)-N^5-cyclopropyl-N^2-methyl-1H-pyrrole-2,5-dicarboxamide] | 82% | ≥ 10 µM | 320 µM (≈ 116 µg/mL) | < 0.05 µM | XXX (Fold >200) | > 60 min | 8% | 0.5 h | – | – | – | – | – | – |

Continued, values first:

| Plasma Stability (% remaining at 120 minutes), Rat ([1]; Method 2 (10 μM)) | IC50 (BRD4 BD1) | solubility thermodynamic [2] | IC50 (BRD4 BD2) | Fold selectivity (BRD4 BD2) | half-life at 1 μM [3] | PO F ([4]; Method 1) | half-life ([4]; IV 1 mg/kg) | Plasma Stability (% remaining at 120 minutes), Rat ([1]; Method 1 (5 μM)) | Plasma Stability (% remaining at 120 minutes), Mouse [5] | Plasma Stability (% remaining at 120 minutes), Human [6] | solubility thermodynamic at 24 h ([2]; Method 1 (UV-vis, 25° C., 24 hrs)) | half-life at 1 μM [7] | IV T1/2 ([4]; IV 1 mg/kg, Method 1) | Structure (SMILES) |
| --- | --- | --- | --- | --- | --- | --- | --- | --- | --- | --- | --- | --- | --- | --- |
| 85% | ≥ 10 µM | 685 µM (≈ 258 µg/mL) | 0.05 to 0.2 µM | XX (Fold >50 and ≤200) | > 60 min | – | – | – | – | – | – | – | – | CNC(=O)c1[nH]c(C(=O)NC2CCC2)cc1OC(C)c1ccc(Cl)cn1 (single isomer, unassigned) [Example 33, 3-(1-(5-chloropyridin-2-yl)ethoxy)-N^5-cyclobutyl-N^2-methyl-1H-pyrrole-2,5-dicarboxamide] |
| 92% | ≥ 10 µM | 365 µM (≈ 124 µg/mL) | < 0.05 µM | XXX (Fold >200) | 60 min | 44% | 0.6 h | – | – | – | – | – | – | C#Cc1ccc(C(C)Oc2cc(C(=O)NCC)[nH]c2C(=O)NC)cc1 (single isomer, unassigned) [Example 70, N^5-ethyl-3-(1-(4-ethynylphenyl)ethoxy)-N^2-methyl-1H-pyrrole-2,5-dicarboxamide] |
